The text below walks through data of patent US11452712B2, “Methods and compositions involving (S)-bucindolol” (ARCA BIOPHARMA, INC., priority 2008, dated 2022).

The structures appear in SMILES notation.

For assay [1], the system named is Human umbilical vein endothelial cells. The assay can be described thus: CaI-stimulated NO release in HUVECs (electrochemical nanosensor). The assay is classed as cell-based. Particulars: 1.0 μM drug, 6 hr pretreatment; for NO release: 1.0 μM CaI stimulation, mean±S.D.; for increase in NO release: versus control. The method, then:
(§1) Human umbilical vein endothelial cells were isolated into primary cultures from healthy female donors by Clonetics (San Diego, Calif.) and purchased as proliferating cells. All cell culture donors were healthy, with no pregnancy or prenatal complications. None of the donors took any drugs regularly and all were nonsmokers and consumed regular caloric/content diet. The cultured cells were incubated in 95% air/5% CO2 at 37° C. and passage by an enzymatic (trypsin) procedure. The confluent cells (4 to 5×10^5 cells per 35-mm dish) were placed with minimum essential medium containing 3 mM L-arginine and 0.1 mM (6R)-5,6,7,8-tetrahydrobiopterin (BH4). Before the experiments, the cells (from second or third passage) were rinsed twice with Tyrode-HEPES buffer with 1.8 mM CaCl2. Bucindolol and its enanatiomers were obtained from Arca Discovery (Denver, Colo.).
(§2) Measurement of NO was carried out with electrochemical nanosensors (FIG. 1). Their design was based on previously developed and well-characterized chemically modified carbon-fiber technology (Lvovich and Scheeline, 1997; Malinski and Taha, 1992). Each of the nanosensors was constructed by depositing a sensing material on the tip of a carbon fiber (length 4-5 μm, diameter 0.2-0.5 μm). The fibers were sealed with nonconductive epoxy and electrically connected to copper wires with conductive silver epoxy. The inventors used a conductive film of polymeric nickel (II) tetrakis (3-methoxy-4-hydroxyphenyl) porphyrin for the NO-sensor.
The NO nanosensors (diameter 1-2 μm) with a platinum wire (0.1 mm) counter electrode and saturated calomel reference electrode (SCE) were applied. Differential pulse voltammetry (DPV) and amperometry were performed with a computer-based Gamry VFP600 multichannel potentiostat. DPV was used to measure the basal NO concentrations, and amperometry was used to measure changes in NO concentrations from its basal level with time. The DPV current at the peak potential characteristic for NO oxidation (0.65 V) […] was directly proportional to the local concentrations of these compounds in the immediate vicinity of the sensor. Linear calibration curves (current vs. concentration) were constructed for each sensor from 10 nM to 3 μM before and after measurements with aliquots of NO standard solutions, respectively. The detection limit of the sensors was 1.0 nM.
(§3) The quantification of each analyte (concentration in nmol/L) was performed using a maximum current from amperograms and standard calibration curves. The reproducibility of measurements with nanosensors is relatively high, as previously described (Lvovich and Scheeline, 1997; Malinski and Taha, 1992). […] The sensors were slowly raised 5±2 μm from the surface of a single endothelial cell.
(§4) The HUVEC preparation is stable over the course of these experiments with the cells remaining viable and active responses to NO stimulation in culture for >24 hours. For robust statistical analysis, randomly selected cells were used for each concentration and type of drug used in these analyses.

For assay [2] the test system is unchanged. In words: CaI-stimulated ONOO− release in HUVECs (nanosensor). The assay is classed as cell-based. Particulars: 1.0 μM drug; for ONOO− levels: CaI stimulation, mean±S.D.; for reduction of ONOO− levels: versus control.
Description: FIG. 1. Schematic diagram of a NO nanosensor placed in close proximity to the surface of a single endothelial cell. The nanosensor measures the levels of NO, O2^−, and ONOO^− from the intact endothelium in real time. The sensors are made by depositing a sensing material on the tip of carbon fiber with a diameter of about 0.5 μm. The fibers are sealed with nonconductive epoxy and electrically connected to wires (gold, copper) with conductive silver epoxy.
as §1, §3, §4

Assay [3] has the same test system. The assay can be described thus: CaI-stimulated NO/ONOO− release ratio in HUVECs. The format is cell-based. The note with it: for increase in NO/ONOO− ratio: 1.0 μM drug; for favorable effect on endothelial function as compared to bucindolol racemate: NO and ONOO− release, HUVECs. As to the method: as §1, §2, §3
The most comprehensive measurement of endothelial function is the ratio of NO to
ONOO^− following treatment with these agents. […] The basis for these differences is not understood but may be due to genetic variability in the eNOS protein. Bucindolol racemate (1.0 μM) increased the NO/ONOO^− ratio in white donors (49%), Mexican American donors (23%), and African American donors (38%) as shown in FIGS. 11-13. […] Again, the favorable effects of bucindolol and its enanatiomers were much more apparent at the higher dose (10.0 μM) by at least two fold. The effect at the high concentration was especially evident in higher risks populations (African Americans, Mexican Americans).

For the next assay, the target named is T1, β1AR Arg/Arg (Homo sapiens, UniProt P08588, G389R).
T1 construct: isolated failing human right ventricular trabeculae; from tissue; host or cells: isolated failing human right ventricular trabeculae, β1AR Arg/Arg genotype
T1 sequence (P08588 whole entry G389R): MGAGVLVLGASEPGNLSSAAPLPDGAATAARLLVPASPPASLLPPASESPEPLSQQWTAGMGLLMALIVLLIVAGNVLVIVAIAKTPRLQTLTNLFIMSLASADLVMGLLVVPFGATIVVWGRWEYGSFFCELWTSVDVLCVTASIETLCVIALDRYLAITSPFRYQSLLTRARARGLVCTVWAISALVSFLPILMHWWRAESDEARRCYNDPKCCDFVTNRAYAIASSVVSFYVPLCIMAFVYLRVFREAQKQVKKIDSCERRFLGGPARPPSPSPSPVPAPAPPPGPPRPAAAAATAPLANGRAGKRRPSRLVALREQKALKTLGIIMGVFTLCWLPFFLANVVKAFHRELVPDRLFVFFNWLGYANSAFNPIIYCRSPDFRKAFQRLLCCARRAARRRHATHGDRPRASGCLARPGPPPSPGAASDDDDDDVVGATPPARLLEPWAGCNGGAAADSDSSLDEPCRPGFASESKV
The assay can be described thus: Force development in isolated failing human right ventricular trabeculae, β1AR Arg/Arg. The format is cell-based.

For the next assay, the target named is T2, β1AR Gly carrier (Homo sapiens, UniProt P08588).
T2 construct: isolated failing human right ventricular trabeculae; from tissue; host or cells: isolated failing human right ventricular trabeculae, β1AR 389 Gly carrier genotypes
T2 sequence (P08588 whole entry): as the sequence (P08588 whole entry G389R) above, with R389G counted along it
The assay can be described thus: Force development in isolated failing human right ventricular trabeculae, β1AR Gly carrier. The format is cell-based.

For assay [4] the following is noted: cited from earlier work.
For a further assay, the target named is T3, β1 389 Arg/Arg receptor (Homo sapiens, UniProt P08588, G389R).
T3 construct: left ventricular membranes prepared from one patient who had the β1 389 Arg/Arg receptor; from tissue; host or cells: human left ventricular membranes, one patient, genotype 389 Arg/Arg
T3 sequence (P08588 whole entry G389R): as the sequence (P08588 whole entry G389R) above
The assay can be described thus: Competition binding in human LV membranes, β1 389 Arg/Arg. As to the method:
(§5) FIG. 14A, 14B. 14A—Competition curve between S- or R-bucindolol in human LV membranes that are 86% β1. AR and genotypically 389 Arg/Arg. The respective Kis are 0.49 nM and 14.0 nM for the S- and R-isomers. 14B—Competition curve between S- or R-bucindolol in human LV membranes that are 83% β1. AR and genotypically 389 Gly/Gly. The respective Kis are 0.59 nM and 26.3 nM for the S- and R-isomers.
(§6) FIG. 14 gives the binding of S- and R-bucindolol in left ventricular membranes prepared from one patient who had the β1 389 Arg/Arg receptor (FIG. 14A), and another with the Gly/Gly (FIG. 14B) genotype. As can be observed, the S-isomer has much higher affinity, in both genotypes. In addition, the Kis are similar for both the S- (0.5-0.6 nM) and R- (around 14-26 nM) isomers in the Arg/Arg and Gly/Gly preparations. Similar results were obtained in the presence of Gpp(NH)p.

A further assay has as its target T4, β1 389 Gly/Gly receptor (Homo sapiens, UniProt P08588).
T4 construct: human LV membranes that are 83% β1; AR and genotypically 389 Gly/Gly; from tissue; host or cells: human left ventricular membranes, one patient, genotype 389 Gly/Gly
In words: Competition binding in human LV membranes, β1 389 Gly/Gly. The note with it: 83% β1 AR, genotype 389 Gly/Gly. As to the method: as §5, §6

The mark [5] stands for this setting: human LV membranes, 86% β1 AR, genotype 389 Arg/Arg.
Setting [6] is: span over the Arg/Arg and Gly/Gly preparations.

T4 sequence (P08588 whole entry): as the sequence (P08588 whole entry G389R) above, with R389G counted along it

In the case of `CC(C)(Cc1c[nH]c2ccccc12)NCC(O)COc1ccccc1C#N` (racemic) [bucindolol, 2-(3-(1-(1H-indol-3-yl)-2-methylpropan-2-ylamino)-2-hydroxypropoxy)benzonitrile], the NO release is 306 ± 25 nM in assay [1] (African American donors), 321 ± 28 nM in assay [1] (Mexican American donors) and 475 ± 27 nM in assay [1] (non-Hispanic white donors). Also, the “increase in NO release” value in assay [1] (African American donors) is on record as 22%; in assay [1] (Mexican American donors) it was 5%; in assay [1] (non-Hispanic white donors), 16%. Also, the results for the “ONOO− levels” value in assay [2] (African American donors), in assay [2] (Mexican American donors) and in assay [2] (non-Hispanic white donors) were 378 ± 30 nM, 422 ± 27 nM and 244 ± 29 nM, respectively. The results for the “reduction of ONOO− levels” value in assay [2] (African American donors), in assay [2] (Mexican American donors) and in assay [2] (non-Hispanic white donors) were 12%, 14% and 19%, respectively. Also, the “increase in NO/ONOO− ratio” value in assay [3] (African American donors) is 38%; in assay [3] (Mexican American donors), 23%; in assay [3] (white donors), 49%. The “functional behaviour at the receptor (force development)” value at β1AR Arg/Arg (high signal transduction, adenylyl cyclase activated by forskolin) is reported as “inverse agonist”; at β1AR Arg/Arg (low levels of signal transduction (low receptor activation)) it was “neutral antagonist”; on β1AR Gly carrier (in the presence of forskolin), “neutral antagonist”; at β1AR Gly carrier (low activation states), “inverse agonist”. Besides, the “hazard ratio for the primary endpoint of all-cause mortality” value in assay [4] (advanced heart failure, at premature stop of trial, C.I.s 0.78-1.02) is reported as 0.90. Besides, in assay [4] (at early termination of BEST), the “mortality versus placebo (in words)” value is reported as “no significant difference in mortality”. Also, the “reduction of mortality or heart failure hospitalization” value in assay [4] (entire BEST cohort, p<0.0001) was 19%.
In the case of `CC(C)(Cc1c[nH]c2ccccc12)NCC(O)COc1ccccc1C#N` (single isomer, unassigned) [(R)-bucindolol], the “favorable effect on endothelial function as compared to bucindolol racemate” value in assay [3] was “less activity”. The inhibition constant (Ki) (as a rule, a measure of affinity in units of concentration, obtained from inhibition or displacement) was 14 nM on β1 389 Arg/Arg receptor (setting [5]), 14 to 26 nM on β1 389 Arg/Arg receptor (setting [6]) and 26.3 nM at β1 389 Gly/Gly receptor.
As to `CC(C)(Cc1c[nH]c2ccccc12)NCC(O)COc1ccccc1C#N` (single isomer, unassigned) [(S)-bucindolol], the NO release in assay [1] (African American donors) came out at 318 ± 16 nM; in assay [1] (Mexican American donors) it was 358 ± 32 nM; in assay [1] (non-Hispanic white donors) it was 553 ± 35 nM. In addition, the “increase in NO release” value worked out at 27% in assay [1] (African American donors), 17% in assay [1] (Mexican American donors) and 35% in assay [1] (non-Hispanic white donors). Moreover, the “ONOO− levels” value in assay [2] (African American donors) turned out to be 352 ± 26 nM; in assay [2] (Mexican American donors), 419 ± 34 nM; in assay [2] (non-Hispanic white donors), 240 ± 24 nM. The “reduction of ONOO− levels” value in assay [2] (African American donors) is 18%; in assay [2] (Mexican American donors) it was 15%; in assay [2] (non-Hispanic white donors) it was 23%. For the same compound, in assay [3], the “favorable effect on endothelial function as compared to bucindolol racemate” value is reported as “more pronounced”. For the same compound, the inhibition constant (Ki) at β1 389 Arg/Arg receptor (setting [5]) is 0.49 nM; on β1 389 Arg/Arg receptor (setting [6]) it was 0.5 to 0.6 nM; at β1 389 Gly/Gly receptor it was 0.59 nM.
Take `CC(C)NCC(O)COc1ccc(CC(N)=O)cc1` (stereo not shown) [atenolol]: the “effect on NO/ONOO− ratio (in words)” value in assay [3] (1.0 and 10.0 μM, three donor groups) is given as “failed to produce an effect”.
